{"source": "paper PMC11040934", "about": "“PI3Kγδ inhibition suppresses key disease features in a rat model of asthma” (Respiratory Research, 2024)", "key": {"[1]": {"tested_on": "asthma patients", "conditions": "cited from earlier work"}, "[2]": {"test": "Human plasma protein binding and unbound fraction in assay media", "assay_type": "in vitro ADME", "method": "(§1) PI3K δ assay: single cell suspension was obtained from the spleen of male Sprague Dawley rat; cells were cultured in RPMI containing heat-inactivated 10% FBS, pre-treated (1 hr., 37 °C, 5% CO2) with vehicle DMSO or PI3K inhibitors, followed by stimulation with AffiniPure F(ab’)2 Fragment Goat Anti-Rat IgM, μ chain specific, Jackson Immunoresearch (112–006-075) at 5 μg/mL (EC80 determined in house; 20–22 hrs). Then, cells were washed with FACS buffer (2% FBS, […]) and stained (15 mins, 4 °C) with Fc block (1:100, 550,273, BD bioscience), LIVE/DEAD Fixable Aqua Dead Cell Stain Kit (L34957, Invitrogen, 1:300), CD45R (B220)-PeCy7 (HIS24) (25–0460-82, eBioscience, 1:100), CD3-AF647 (IF4) (201,408, Biolegend, 1:100), CD86-FITC (24F) (200,305, Biolegend, 1:50). Cells were acquired on the Flow Cytometer (BD LSRFortessa™) and analysed using FlowJo 9.9 software (TreeStar). FACS gating strategy: lymphocytes (FSC-A vs SSC-A), doublets exclusion (FSC-W vs FSC-H), live cells (Aqua-530-), B cell identification CD3- B220 + % of positive B cells for CD86. IC50 values were determined in Graph Pad through a nonlinear fit on log transform data: log inhibitor vs response, variable slope, 4 parameters. Fraction unbound in in vitro assay is calculated using the following equation: fu^′=DF·fup/1+DF-1·fup where fu’ is the fraction unbound in assay media; fup is the experimentally determined fraction unbound in undiluted human plasma; DF is the dilution factor (fold difference between protein concentration in human plasma and assay media, using an albumin concentration of 600 μM (40 g/L) for undiluted plasma) Table 2."}, "[3]": {"test": "Rat plasma protein binding, blood to plasma ratio, unbound fraction in whole blood", "assay_type": "in vitro ADME", "conditions": "for Rat fub: fraction unbound in 100% whole blood, fup/BP; for fraction unbound: rat", "method": "(§2) Next, cells were stained with Fc block (550,273, BD bioscience, 1:100; 20 mins, RT), CD45R-B220-PeCy7 (HIS24) (25–0460-82, eBioscience, 1:100), CD43-PE (W3/13) (202,812, Biolegend, 1:100), HIS48-FITC (11–0570-82, eBioscience, 1:100), CD11b-APC (562,102, BD Bioscience, 1:100). Cells were lysed and fixed with BD FACS lysing solution (349,202, BD Biosciences; 45 mins, RT) before FACS acquisition (BD LSRFortessa™). Data were analysed using FlowJo 9.9 software (TreeStar). FACS gating strategy: lymphocytes (FSC-A vs SSC-A), doublets exclusion (FSC-W vs FSC-H), neutrophil identification B220-, HIS48hi, CD43hi, SSC-Ahi, geom. MFI for CD11b on neutrophils. IC50 values were determined in Graph Pad through a nonlinear fit on log transform data: log inhibitor vs response, variable slope, 4 parameters. Fraction unbound in diluted whole blood is calculated using the following equation: fu^′=DF·fub/1+DF-1·fub where fu’ is the fraction unbound in diluted whole blood; fub is the fraction unbound in undiluted whole blood; DF is the dilution factor. Fraction unbound in 100% whole blood (fub) is calculated as fup/BP, where fup is the experimentally determined fraction unbound in undiluted plasma and BP is the experimentally determined blood to plasma partition ratio of drug Table 1."}, "[4]": {"molecular_target": "T1, rat PI3Kδ (Rattus norvegicus, UniProt A0A8I5Y949)", "T1 sequence (A0A8I5Y949 1-1047)": "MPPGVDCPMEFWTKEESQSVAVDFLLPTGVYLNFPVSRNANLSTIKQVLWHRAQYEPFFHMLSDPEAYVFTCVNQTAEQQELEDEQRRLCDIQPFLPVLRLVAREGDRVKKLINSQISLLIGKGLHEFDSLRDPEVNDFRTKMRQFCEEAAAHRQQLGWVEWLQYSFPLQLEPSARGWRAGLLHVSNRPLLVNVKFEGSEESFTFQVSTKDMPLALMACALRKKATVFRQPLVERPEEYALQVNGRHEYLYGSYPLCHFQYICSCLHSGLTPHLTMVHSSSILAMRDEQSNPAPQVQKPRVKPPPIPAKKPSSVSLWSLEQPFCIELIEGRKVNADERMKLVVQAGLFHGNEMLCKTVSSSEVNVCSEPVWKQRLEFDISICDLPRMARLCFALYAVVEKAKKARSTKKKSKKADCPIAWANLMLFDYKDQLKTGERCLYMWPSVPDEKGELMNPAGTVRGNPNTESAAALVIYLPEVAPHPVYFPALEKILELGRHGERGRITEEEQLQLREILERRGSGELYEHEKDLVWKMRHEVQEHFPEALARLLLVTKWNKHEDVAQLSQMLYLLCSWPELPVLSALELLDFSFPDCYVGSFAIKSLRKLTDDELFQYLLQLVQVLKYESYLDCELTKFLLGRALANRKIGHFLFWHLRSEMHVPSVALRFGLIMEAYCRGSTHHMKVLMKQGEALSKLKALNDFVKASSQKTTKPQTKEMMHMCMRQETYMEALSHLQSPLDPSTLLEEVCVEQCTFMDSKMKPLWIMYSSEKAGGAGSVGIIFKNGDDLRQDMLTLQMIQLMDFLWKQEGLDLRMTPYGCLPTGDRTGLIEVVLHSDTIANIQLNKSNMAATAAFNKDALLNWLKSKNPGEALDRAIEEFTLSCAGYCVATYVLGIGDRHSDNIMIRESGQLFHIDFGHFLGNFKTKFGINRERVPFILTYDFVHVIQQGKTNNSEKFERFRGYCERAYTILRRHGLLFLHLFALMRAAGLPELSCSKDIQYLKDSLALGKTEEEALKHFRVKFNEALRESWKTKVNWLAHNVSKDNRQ", "test": "PI3K δ assay: anti-IgM-stimulated CD86 expression on rat splenic B cells (FACS)", "assay_type": "cell-based", "conditions": "reference inhibitors, at the relevant concentration", "method": "as §1"}, "[5]": {"molecular_target": "rat PI3Kγ (Rattus norvegicus, UniProt D3ZFJ0)", "sequence (D3ZFJ0 1-1102)": "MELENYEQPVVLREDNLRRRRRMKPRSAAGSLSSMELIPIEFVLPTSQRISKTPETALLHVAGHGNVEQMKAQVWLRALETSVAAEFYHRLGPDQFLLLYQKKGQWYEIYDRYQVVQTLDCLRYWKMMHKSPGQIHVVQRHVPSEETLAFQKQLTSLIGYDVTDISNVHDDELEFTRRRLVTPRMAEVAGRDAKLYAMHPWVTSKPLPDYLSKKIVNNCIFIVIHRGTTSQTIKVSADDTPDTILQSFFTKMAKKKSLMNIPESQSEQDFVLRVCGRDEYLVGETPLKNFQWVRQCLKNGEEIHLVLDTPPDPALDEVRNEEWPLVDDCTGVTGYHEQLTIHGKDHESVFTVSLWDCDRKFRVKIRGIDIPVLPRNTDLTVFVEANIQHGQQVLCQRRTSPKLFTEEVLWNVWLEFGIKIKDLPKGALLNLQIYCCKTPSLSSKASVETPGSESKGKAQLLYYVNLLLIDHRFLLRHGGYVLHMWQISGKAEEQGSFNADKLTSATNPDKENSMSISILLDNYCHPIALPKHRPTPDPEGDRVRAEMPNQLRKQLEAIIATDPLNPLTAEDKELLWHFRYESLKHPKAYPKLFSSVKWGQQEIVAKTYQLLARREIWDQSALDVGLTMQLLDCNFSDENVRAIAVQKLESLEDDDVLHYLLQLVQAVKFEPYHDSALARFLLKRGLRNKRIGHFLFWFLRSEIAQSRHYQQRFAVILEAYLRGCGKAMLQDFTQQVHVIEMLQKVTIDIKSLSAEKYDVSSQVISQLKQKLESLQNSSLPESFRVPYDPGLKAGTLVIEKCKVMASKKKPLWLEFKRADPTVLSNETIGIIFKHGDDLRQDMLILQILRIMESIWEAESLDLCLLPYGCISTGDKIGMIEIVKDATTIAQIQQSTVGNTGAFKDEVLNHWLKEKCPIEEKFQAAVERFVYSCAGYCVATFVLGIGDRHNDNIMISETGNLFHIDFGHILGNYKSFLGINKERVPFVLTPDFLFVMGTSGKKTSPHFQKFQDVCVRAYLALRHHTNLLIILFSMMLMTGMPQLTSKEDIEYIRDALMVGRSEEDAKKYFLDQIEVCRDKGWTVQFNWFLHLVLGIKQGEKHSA", "test": "PI3K γ assay: CXCL1/CINC-1-stimulated CD11b expression on rat whole blood neutrophils (FACS)", "assay_type": "cell-based", "conditions": "reference inhibitors, at the relevant concentration", "method": "as §2, with “PI3K γ assay: whole blood from male Sprague Dawley rat was collected in heparin coated tubes and pre-treated (1 hr., 37 °C, 5% CO2) with vehicle DMSO or PI3K inhibitors followed by stimulation with Rat CXCL1/CINC-1 (515-CN-050, R&D) at 500 ng/mL (EC80 determined in house; 1 hr., RT). Next,” for “Next,”"}, "[6]": {"tested_on": "PI3K pathway (pAkt)", "test": "Rat model of allergic asthma: lung tissue pAkt (T308), target engagement", "assay_type": "in vivo, Brown Norway rat", "conditions": "i.t. 1 hr before OVA challenge; AZD8154 0.02, 0.1, 0.3 mg/kg, budesonide 3 mg/kg; lung 2 hrs after challenge", "method": "(§3) Male, adult, Brown Norway rats were obtained from Charles River Germany at a body weight range of 250-300 g. Animals were housed in temperature controlled individually ventilated cages in groups of 4 with food and water provided ad libitum. Animals underwent acclimatisation for at least 1 week prior to experimentation. Experiments were performed in accordance with the UK Home Office guidelines for animal welfare based on the Animals (Scientific Procedures) Act of 1986 and the ARRIVE guidelines (Fig. E2).\nInitially a time course study was performed, followed by a characterisation study with compound & clinical comparator. […]\n5 μL of supernatant (1:50 dilution) was taken for Bradford Assay which was run according to manufacturers’ instructions (BioRad, USA). […] Absorbance was measured using a spectrophotometer and total protein values interpolated to standard curve (595 nm; Spectromax, UK).\n10 μg of protein from lung tissue extract were utilized in pAkt (T308); pSTAT3, pSTAT4 & STAT5a, b (Phospho-STAT Panel kit) MSD Assay plates (Meso Scale Delivery, USA) and run according to manufacturers’ instructions. Arbitrary electrochemiluminescence signals were read, the blank subtracted and values determined in each plate using a MSD S-Plex plate reader (Meso Scale Delivery, USA)."}, "[7]": {"tested_on": "Brown Norway rats, OVA sensitised and challenged", "test": "Rat model of allergic asthma: BAL cellular inflammation", "assay_type": "in vivo, Brown Norway rat", "conditions": "BAL 24 hrs after OVA challenge; i.t. dosing", "method": "as §3\n(§4) Initially a time course study was performed, followed by a characterisation study with compound & clinical comparator. For both studies, rats were sensitised on day 0, 14 and 21 by an intraperitoneal (i.p.) injection of 4 mL/kg (1 mL/rat) of ovalbumin (OVA;100 μg/rat) in Imject™ Alum (20 mg/rat aluminium hydroxide and 20 mg/rat magnesium hydroxide) or sham sensitised (Saline [Sal] in Imject™ Alum). On day 28 rats were challenged with 1% (w/v) aerosolised OVA in isotonic saline, or sham challenged with isotonic saline (30 mins).\nFollowing blood collection, rats underwent tracheostomy and were cannulated. Rats were lavaged and bronchoalveolar lavage (BAL) fluid was collected (2 × 3 mL RPMI, 30 secs, 70% vol. retained). Slides were prepared using 100 μL of neat BAL, centrifuged (700 rpm, 5 mins, RT, low acceleration; Cytospin 2, Shandon, Runcorn, UK). 800 μL of neat BAL was collected and centrifuged (800×g, 10 mins, 4 °C). Supernatant was collected and stored (− 80 °C), and cell pellet was resuspended (200 μL, RPMI), total leukocytes were attained using a Sysmex XP-300 automated cell counter (Sysmex Ltd., Milton Keynes, UK). Remaining BAL was centrifuged (800×g, 10 mins, 4 °C) and supernatant collected and stored (− 80 °C).\nBAL cytospin slides were placed in an automated stainer (Hematek 2000, Ames. Co., USA) and stained with a Modified-Wright stain (Siemens, Germany). Differential cell counts using a light microscope were performed based on morphological criteria were performed to determine percentages of macrophages/monocytes, lymphocytes, neutrophils & eosinophils. Total numbers of each distinct cell type were determined based on total leukocyte numbers."}, "[8]": {"tested_on": "Brown Norway rats, OVA sensitised and challenged", "test": "Rat model of allergic asthma: late asthmatic response (Penh, whole body plethysmography)", "assay_type": "in vivo, Brown Norway rat", "conditions": "1-6 hrs after OVA challenge; i.t. dosing", "method": "as §3\nas §4, with “On day 28 rats were challenged with 1% (w/v) aerosolised OVA in isotonic saline, or sham challenged with isotonic saline (30 mins).” left out\nIn both studies, 30 mins post-challenge, rats were placed unrestrained in Perspex plethysmographs connected to bias flow pumps (DSI Europe Ltd), with food and water ad libitum. 55 mins post-challenge, a five mins baseline recording was taken and the average penh and area under the curve (AUC) was recorded at 10 mins intervals for a total duration of 5 hrs and was used for analysis (DSI Europe Ltd)."}}, "data": [{"smiles": "C[C@H](Nc1ncnc2nc[nH]c12)c1cc2cccc(Cl)c2c(=O)n1-c1ccccc1", "note": "[duvelisib]", "values": [{"measurement": "effect in clinical asthma trials", "setting": "[1]; oral", "value": "beneficial effects"}]}, {"smiles": "CC(C)N1CCN(Cc2cnc(-c3cc(-c4cccc5[nH]ccc45)cc4[nH]ncc34)o2)CC1", "note": "[Nemarisilib]", "values": [{"measurement": "asthma symptoms in clinical trials", "setting": "[1]; inhaled", "value": "no improvement in asthma symptoms"}, {"measurement": "cough propensity in clinical trials", "setting": "[1]; inhaled", "value": "increase in cough propensity"}]}, {"smiles": "CC(C)N1CCN(Cc2cnc(-c3cc(-c4cccc5[nH]ccc45)cc4[nH]ncc34)o2)CC1", "note": "[GSK2269557]", "values": [{"measurement": "fraction unbound", "setting": "[2]; human plasma, fraction unbound, read-out: Human ppb (fu, %)", "value": 0.021}, {"measurement": "fraction unbound", "setting": "[2]; human, assay media (PI3K δ assay), fraction unbound in assay media (δ assay, RPMI 10% FBS), read-out: Fu’", "value": 0.177}, {"measurement": "Rat B/P ratio", "setting": "[3]; blood to plasma partition ratio", "value": 0.88}, {"measurement": "Rat fub", "setting": "[3]", "value": 0.050}, {"measurement": "fraction unbound", "setting": "[3]; diluted whole blood (PI3K γ assay), fraction unbound in diluted whole blood, DF 1.05 (γ assay), read-out: fu’", "value": 0.0524}, {"measurement": "fraction unbound", "setting": "[3]; plasma, rat plasma, fraction unbound, read-out: Rat ppb (fu, %)", "value": 0.044}, {"measurement": "fraction unbound", "setting": "[3]; plasma, undiluted rat plasma, fraction, read-out: Rat plasma fu", "value": 0.044}, {"measurement": "effect in PI3Kδ assay (CD86 expression)", "setting": "[4]", "value": "blocked their respective assay"}, {"measurement": "effect in PI3Kγ assay (CD11b expression)", "setting": "[5]", "value": "had no impact on the other assay"}]}, {"smiles": "CCCC1O[C@@H]2C[C@H]3[C@@H]4CCC5=CC(=O)C=C[C@]5(C)[C@H]4[C@@H](O)C[C@]3(C)[C@]2(C(=O)CO)O1", "note": "(some centres unmarked) [budesonide]", "values": [{"measurement": "lung tissue pAkt levels", "setting": "[6]", "value": "dramatic inhibition"}, {"measurement": "BAL eosinophils", "setting": "[7]", "value": "reversing these key features to basal levels"}, {"measurement": "BAL neutrophils", "setting": "[7]", "value": "reversing these key features to basal levels"}, {"measurement": "BAL total leukocytes", "setting": "[7]", "value": "reversing these key features to basal levels"}, {"measurement": "LAR (Penh, AUC)", "setting": "[8]", "value": "inhibiting the lung function change"}]}, {"smiles": "CC(=O)Nc1nc(C)c(-c2cc3c(c(S(C)(=O)=O)c2)C(=O)N([C@@H](C)C2CC2)C3)s1", "note": "[AZD3458]", "values": [{"measurement": "Rat fub", "setting": "[3]", "value": 0.200}, {"measurement": "effect in PI3Kδ assay (CD86 expression)", "setting": "[4]", "value": "had no impact on the other assay"}, {"measurement": "effect in PI3Kγ assay (CD11b expression)", "setting": "[5]", "value": "blocked their respective assay"}]}]}
